Reference: ChEMBL document CHEMBL4316596, “Antimicrobial Peptides with High Proteolytic Resistance for Combating Gram-Negative Bacteria” (J Med Chem, 2019)

System: Acinetobacter baumannii
Test: Antimicrobial activity against Acinetobacter baumannii after 24 hrs by NCCLS-protocol based assay
Type: functional
Conditions: not given

Substance | MIC95 [µM]
H-VKPVVKPVVKPVVKPVVKPVVKPV-NH2 | > 64

System: Acinetobacter baumannii
Test: Bactericidal activity against Acinetobacter baumannii incubated for 4 hrs followed by culture spread on agar plates and cultured overnight
Type: functional
Conditions: read-out: MBC>99.9

Substance | MBC [µM]
H-VKPVVKPVVKPVVKPVVKPVVKPV-NH2 | > 64

System: Pseudomonas aeruginosa
Test: Bactericidal activity against Pseudomonas aeruginosa 25349 clinical isolates incubated for 4 hrs followed by culture spread on agar plates and cultured overnight
Type: functional
Conditions: Pseudomonas aeruginosa, 25349, 4 h; read-out: MBC>99.9

Substance | MBC [µM]
H-VKPVVKPVVKPVVKPVVKPVVKPV-NH2 | > 64

System: Escherichia coli
Test: Bactericidal activity against Escherichia coli ATCC 25922 incubated for 4 hrs followed by culture spread on agar plates and cultured overnight
Type: functional
Conditions: ATCC 25922, 4 h, read-out: MBC>99.9

Substance | MBC [µM]
H-VKPVVKPVVKPVVKPVVKPVVKPV-NH2 | > 64

System: Salmonella typhimurium
Test: Bactericidal activity against Salmonella typhimurium ATCC 14028 incubated for 4 hrs followed by culture spread on agar plates and cultured overnight
Type: functional, Salmonella enterica subsp. enterica serovar Typhimurium
Conditions: Salmonella enterica, ATCC 14028, 4 h; read-out: MBC>99.9

Substance | MBC [µM]
H-VKPVVKPVVKPVVKPVVKPVVKPV-NH2 | > 64

System: Escherichia coli
Test: Bactericidal activity against Escherichia coli K99 incubated for 4 hrs followed by culture spread on agar plates and cultured overnight
Type: functional
Conditions: K99, 4 h, read-out: MBC>99.9

Substance | MBC [µM]
H-VKPVVKPVVKPVVKPVVKPVVKPV-NH2 | > 64

System: Pseudomonas aeruginosa
Test: Bactericidal activity against Pseudomonas aeruginosa CICC 21625 clinical isolates incubated for 4 hrs followed by culture spread on agar plates and cultured overnight
Type: functional
Conditions: CICC 21625, 4 h, read-out: MBC>99.9

Substance | MBC [µM]
H-VKPVVKPVVKPVVKPVVKPVVKPV-NH2 | > 64

System: Escherichia coli
Test: Bactericidal activity against Escherichia coli 078 incubated for 4 hrs followed by culture spread on agar plates and cultured overnight
Type: functional
Conditions: Escherichia coli, 078, 4 h; read-out: MBC>99.9

Substance | MBC [µM]
H-VKPVVKPVVKPVVKPVVKPVVKPV-NH2 | > 64

System: Salmonella typhimurium
Test: Antimicrobial activity against Salmonella typhimurium ATCC 14028 after 24 hrs by NCCLS-protocol based assay
Type: functional, Salmonella enterica subsp. enterica serovar Typhimurium
Conditions: Salmonella enterica, ATCC 14028, 24 h

Substance | MIC95 [µM]
H-VKPVVKPVVKPVVKPVVKPVVKPV-NH2 | > 64

System: Pseudomonas aeruginosa
Test: Antimicrobial activity against Pseudomonas aeruginosa 25349 clinical isolates after 24 hrs by NCCLS-protocol based assay
Type: functional
Conditions: Pseudomonas aeruginosa, 25349, 24 h

Substance | MIC95 [µM]
H-VKPVVKPVVKPVVKPVVKPVVKPV-NH2 | > 64

System: Escherichia coli
Test: Bactericidal activity against Escherichia coli UB1005 incubated for 4 hrs followed by culture spread on agar plates and cultured overnight
Type: functional
Conditions: UB1005, 4 h, read-out: MBC>99.9

Substance | MBC [µM]
H-VKPVVKPVVKPVVKPVVKPVVKPV-NH2 | > 64

System: not listed separately
Test: Antimicrobial activity against Salmonella pullorum C7913 after 24 hrs by NCCLS-protocol based assay
Type: functional, Salmonella enterica subsp. enterica serovar Pullorum
Conditions: Salmonella enterica, C7913, 24 h

Substance | MIC95 [µM]
H-VKPVVKPVVKPVVKPVVKPVVKPV-NH2 | > 64

System: Pseudomonas aeruginosa
Test: Antimicrobial activity against Pseudomonas aeruginosa ATCC 27853 after 24 hrs by NCCLS-protocol based assay
Type: functional
Conditions: ATCC 27853, 24 h

Substance | MIC95 [µM]
H-VKPVVKPVVKPVVKPVVKPVVKPV-NH2 | > 64

System: Salmonella typhimurium
Test: Bactericidal activity against Salmonella typhimurium C7731 incubated for 4 hrs followed by culture spread on agar plates and cultured overnight
Type: functional, Salmonella enterica subsp. enterica serovar Typhimurium
Conditions: Salmonella enterica, C7731, 4 h; read-out: MBC>99.9

Substance | MBC [µM]
H-VKPVVKPVVKPVVKPVVKPVVKPV-NH2 | > 64

System: Pseudomonas aeruginosa
Test: Bactericidal activity against Pseudomonas aeruginosa PAO1 incubated for 4 hrs followed by culture spread on agar plates and cultured overnight
Type: functional
Conditions: PAO1, 4 h, read-out: MBC>99.9

Substance | MBC [µM]
H-VKPVVKPVVKPVVKPVVKPVVKPV-NH2 | > 64

System: Pseudomonas aeruginosa
Test: Antimicrobial activity against Pseudomonas aeruginosa PAO1 after 24 hrs by NCCLS-protocol based assay
Type: functional
Conditions: PAO1, 24 h

Substance | MIC95 [µM]
H-VKPVVKPVVKPVVKPVVKPVVKPV-NH2 | > 64

System: Escherichia coli
Test: Antimicrobial activity against Escherichia coli K99 after 24 hrs by NCCLS-protocol based assay
Type: functional
Conditions: K99, 24 h

Substance | MIC95 [µM]
H-VKPVVKPVVKPVVKPVVKPVVKPV-NH2 | > 64

System: Escherichia coli
Test: Antimicrobial activity against Escherichia coli K88 after 24 hrs by NCCLS-protocol based assay
Type: functional
Conditions: K88, 24 h

Substance | MIC95 [µM]
H-VKPVVKPVVKPVVKPVVKPVVKPV-NH2 | > 64

System: Escherichia coli
Test: Bactericidal activity against Escherichia coli K88 incubated for 4 hrs followed by culture spread on agar plates and cultured overnight
Type: functional
Conditions: K88, 4 h, read-out: MBC>99.9

Substance | MBC [µM]
H-VKPVVKPVVKPVVKPVVKPVVKPV-NH2 | > 64

System: Pseudomonas aeruginosa
Test: Antimicrobial activity against Pseudomonas aeruginosa 26305 clinical isolates after 24 hrs by NCCLS-protocol based assay
Type: functional
Conditions: Pseudomonas aeruginosa, 26305, 24 h

Substance | MIC95 [µM]
H-VKPVVKPVVKPVVKPVVKPVVKPV-NH2 | > 64

System: Klebsiella pneumoniae
Test: Bactericidal activity against Klebsiella pneumoniae incubated for 4 hrs followed by culture spread on agar plates and cultured overnight
Type: functional
Conditions: read-out: MBC>99.9

Substance | MBC [µM]
H-VKPVVKPVVKPVVKPVVKPVVKPV-NH2 | > 64

System: Pseudomonas aeruginosa
Test: Bactericidal activity against Pseudomonas aeruginosa CICC 21630 clinical isolates incubated for 4 hrs followed by culture spread on agar plates and cultured overnight
Type: functional
Conditions: CICC 21630, 4 h, read-out: MBC>99.9

Substance | MBC [µM]
H-VKPVVKPVVKPVVKPVVKPVVKPV-NH2 | > 64

System: not listed separately
Test: Bactericidal activity against Salmonella pullorum C7913 incubated for 4 hrs followed by culture spread on agar plates and cultured overnight
Type: functional, Salmonella enterica subsp. enterica serovar Pullorum
Conditions: Salmonella enterica, C7913, 4 h; read-out: MBC>99.9

Substance | MBC [µM]
H-VKPVVKPVVKPVVKPVVKPVVKPV-NH2 | > 64

System: Salmonella typhimurium
Test: Antimicrobial activity against Salmonella typhimurium C7731 after 24 hrs by NCCLS-protocol based assay
Type: functional, Salmonella enterica subsp. enterica serovar Typhimurium
Conditions: Salmonella enterica, C7731, 24 h

Substance | MIC95 [µM]
H-VKPVVKPVVKPVVKPVVKPVVKPV-NH2 | > 64

System: Pseudomonas aeruginosa
Test: Antimicrobial activity against Pseudomonas aeruginosa CICC 21630 clinical isolates after 24 hrs by NCCLS-protocol based assay
Type: functional
Conditions: CICC 21630, 24 h

Substance | MIC95 [µM]
H-VKPVVKPVVKPVVKPVVKPVVKPV-NH2 | > 64

System: Pseudomonas aeruginosa
Test: Bactericidal activity against Pseudomonas aeruginosa 26305 clinical isolates incubated for 4 hrs followed by culture spread on agar plates and cultured overnight
Type: functional
Conditions: Pseudomonas aeruginosa, 26305, 4 h; read-out: MBC>99.9

Substance | MBC [µM]
H-VKPVVKPVVKPVVKPVVKPVVKPV-NH2 | > 64

System: Escherichia coli
Test: Antimicrobial activity against Escherichia coli ATCC 25922 after 24 hrs by NCCLS-protocol based assay
Type: functional
Conditions: ATCC 25922, 24 h

Substance | MIC95 [µM]
H-VKPVVKPVVKPVVKPVVKPVVKPV-NH2 | > 64

System: Escherichia coli
Test: Antimicrobial activity against Escherichia coli 078 after 24 hrs by NCCLS-protocol based assay
Type: functional
Conditions: Escherichia coli, 078, 24 h

Substance | MIC95 [µM]
H-VKPVVKPVVKPVVKPVVKPVVKPV-NH2 | > 64

System: Pseudomonas aeruginosa
Test: Bactericidal activity against Pseudomonas aeruginosa ATCC 27853 incubated for 4 hrs followed by culture spread on agar plates and cultured overnight
Type: functional
Conditions: ATCC 27853, 4 h, read-out: MBC>99.9

Substance | MBC [µM]
H-VKPVVKPVVKPVVKPVVKPVVKPV-NH2 | > 64

System: Pseudomonas aeruginosa
Test: Antimicrobial activity against Pseudomonas aeruginosa CICC 21625 clinical isolates after 24 hrs by NCCLS-protocol based assay
Type: functional
Conditions: CICC 21625, 24 h

Substance | MIC95 [µM]
H-VKPVVKPVVKPVVKPVVKPVVKPV-NH2 | > 64

System: Escherichia coli
Test: Antimicrobial activity against Escherichia coli UB1005 after 24 hrs by NCCLS-protocol based assay
Type: functional
Conditions: UB1005, 24 h

Substance | MIC95 [µM]
H-VKPVVKPVVKPVVKPVVKPVVKPV-NH2 | > 64

System: Klebsiella pneumoniae
Test: Antimicrobial activity against Klebsiella pneumoniae after 24 hrs by NCCLS-protocol based assay
Type: functional
Conditions: not given

Substance | MIC95 [µM]
H-VKPVVKPVVKPVVKPVVKPVVKPV-NH2 | > 64
